Experimental data published in patent US11820745B2, “PKC-activating compounds for the treatment of neurodegenerative diseases” (Synaptogenix, Inc., priority 2008, dated 2023).

Legend:
PKCδ = target: T1, PKCδ (Homo sapiens, UniProt Q05655); assay: Protein kinase C assay, purified PKC isozymes: PKCδ; type: biochemical; details: higher concentrations, about 1-100 μM; data not shown
T1 construct: purchased Calbiochem
Description: Protein kinase C assay. Rat hippocampal cells were cultured and scraped in 0.2 ml homogenization buffer (20 triM Tris-HCl, pH 7.4, 50 mM NaF, 1 μg/ml leupeptin, and 0.1 mM PMSF) and homogenized by sonication in a Marsonix micro-probe sonicator (5 see, 10W). To measure PKC, 10 ul of cell homogenate or purified. PKC isozyme (purchased from Calbiochem) was incubated for 15 min at 37° C. in the presence of 10 μM histones, 4.89 mM CaCl2, 1.2 μg/μl phosphatidyl-L-serine, 0.18 μg/μl 1,2-dioctanoyl-sn-glycerol, 10 mM MgCl2, 20 mM HEPES (pH 7.4), 0.8 mM EDTA, 4 mM EGTA, 4% glycerol, 8 μg/ml aprotinin, 8 μg/ml leupeptin, and 2 mM benzamidine. 0.5 μCi [^γ-32P]ATP was added and ^32P-phosphoprotein formation was measured by adsorption onto phosphocellulose as described previously. Nelson and Alkon, J. Neurochemistry. 1995; 65: 2350-57. For measurements of activation by BR-101 (DCP-LA) and similar compounds, PKC activity was measured in the absence of diacylglycerol and phosphatidyl serine, as described by Kanno et al., and PKC δ, ε, η, and μ were measured in the absence of added EGTA and CaCl2, as described by Kanno et al., J. Lipid Res. 2006; 47: 1146-50. […]
To determine their PKC isozyme specificity, the new compounds were preincubated with purified PKC for five minutes and the PKC activity was measured radiometrically.

[1] = tested on: SH-SY5Y neuroblastoma cells; assay: Cell survival and proliferation (alamar Blue, CyQuant) in SH-SY5Y neuroblastoma cells; type: cell-based, human; details: for effect on proliferation: CyQuant staining, FIG. 11b; for effect on cell survival: alamar Blue, FIG. 11a
Description: (§1) AB Measurement and Cell Viability Assay. Aβ was measured using an Aβ1-42 human fluorimetric ELISA kit (Invitrogen) according to the manufacturer's instructions. Results were measured in a Biotek Synergy HT microplate reader. AlamarBlue and CyQuant NF (Invitrogen) according to the manufacturer's instructions.

[2] = tested on: Endothelin-converting enzyme (ECE); assay: ECE assay in SH-SY5Y neuroblastoma cells; type: cell-based, human; details: bryostatin 0.27 nM, BR-101 1 μM, BR-111 1 μM; FIG. 10
Description: ECE assay. SH-S757 neuroblastoma cells were incubated with bryostatin (0.27 nM), BR-101 (PCP-LA) (1 μM), and BR-111 (DHA-CP6) (1 μM). Endothelin-converting enzyme (ECE) was measured fluorimetrically using the method of Johnson and Ahn, Anal. Biochem. 2000; 286: 112-118. A sample of cell homogenate (20 μl) was incubated in 50 mM MES-KOH, pH 6.0, 0.01% C12E10 (polyoxyethylene-10-tauryl ether), and 15 μM McaBK2. (7-Methoxycournarin-4-acetyl [Ala7-(2,4-Dinitrophenyl)Lys9]-bradykinin trifluoroacetate salt) (Sigma-Aldrich). After 60 min at 37° C., the reaction was quenched by adding trifluoroacetic acid to 0.5%. The sample was diluted to 1.4 ml with water and the fluorescence was measured at ex=334 nm, em=398 nm.

Aβ = assay: Degradation of exogenously applied Aβ in SH-SY5Y neuroblastoma cells; type: cell-based, human; details: 0.01 to 10 μM; 100 nM exogenous monomeric Aβ-42; 24 h; FIG. 8
Description: Cell culture. Rat hippocampal H19-71GF-IR cells (ATCC, Manassas, Va.) were plated onto poly-L-lysine coated plates and grown at 35° C. in DMEM/10% FCS for several days until about 50% coverage was obtained. The cells were then induced to differentiate into a neuronal phenotype by replacing the medium with 5 ml N2 medium containing 10 ng/ml basic fibroblast growth factor at 39° C. and grown in T-75 flasks at 37° C. Human SH-SY5Y neuroblastoma cells (ATCC) were cultured in 45% F12K/45% MEM/10% FCS. Mouse N2A neuroblastoma cells were cultured in DMEM/10% FCS without glutamine. Rat hippocampal neurons from 18-day-old embryonic
as §1
To determine whether the reduced levels of AP caused by PKC activators were due to inhibition of Aβ synthesis or activation of Aβ degradation, we applied BR-111 (DHA-CP6) (0.01 to 10 μM) and low concentrations (100 nM) of exogenous monomeric Aβ-42 to cultured SH-SY5Y cells. This concentration of Aβ is too low to produce measurable toxicity or cell death. […]

TACE = TACE assay in rat primary neurons; type: cell-based; details: primary neurons from rat hippocampus; FIGS. 9b, c
Description: TACE Assay. TACE was measured by incubating 5 μl cell homogenate, 3 μl buffer (50 mM Tris-HCl 7.4 plus 25 mM NaCl plus 4% glycerol), and 1 of 100 μM TACE substrate IV (Aβz-LAQAVRSSSR-DPa) (Calbiochem) for 20 min at 37° in 1.5-ml polypropylene centrifuge tubes (Jin et al., Anal Biochem. 2002; 302: 269-75). The reaction was stopped by cooling to 4° C. The samples were diluted to 1 ml and the fluorescence was rapidly measured (ex=320 nm, em=420 nm) in a Spex Fluorolog 2 spectrofluorometer.

T1 sequence (Q05655 whole entry): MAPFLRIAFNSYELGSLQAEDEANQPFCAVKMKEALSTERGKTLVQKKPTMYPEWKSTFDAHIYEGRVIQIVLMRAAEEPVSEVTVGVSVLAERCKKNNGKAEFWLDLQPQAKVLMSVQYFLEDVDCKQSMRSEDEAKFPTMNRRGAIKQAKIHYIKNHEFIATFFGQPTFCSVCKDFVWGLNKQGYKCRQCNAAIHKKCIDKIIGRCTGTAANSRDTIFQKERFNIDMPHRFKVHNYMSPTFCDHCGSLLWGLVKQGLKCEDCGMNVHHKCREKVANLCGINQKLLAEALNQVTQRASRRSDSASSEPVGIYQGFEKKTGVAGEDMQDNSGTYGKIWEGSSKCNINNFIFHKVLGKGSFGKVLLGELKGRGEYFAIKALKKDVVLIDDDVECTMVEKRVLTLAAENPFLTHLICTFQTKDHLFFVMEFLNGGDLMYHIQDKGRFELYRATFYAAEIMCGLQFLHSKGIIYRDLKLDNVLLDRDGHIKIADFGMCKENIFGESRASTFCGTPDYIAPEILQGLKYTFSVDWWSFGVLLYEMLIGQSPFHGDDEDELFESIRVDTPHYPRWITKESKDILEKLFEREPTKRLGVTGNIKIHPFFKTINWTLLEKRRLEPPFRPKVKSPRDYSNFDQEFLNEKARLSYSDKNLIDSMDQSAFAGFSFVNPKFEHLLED

Compound	effect on PKCδ (PKCδ)	effect on proliferation [1]	effect on cell survival [1]	ECE activity [2]	reduction of cellular levels of Aβ (Aβ)	TACE activity (TACE)
CCCCCC1CC1CC1CC1CCCCCCCC(=O)O (stereo not drawn) [BR-101, 8-[2-(2-pentyl-cyclopropylmethyl)-cyclopropyl]-octanoic acid]	partially inhibited	no effect	no effect	sustained increase	–	–
CCC1CC1CC1CC1CC1CC1CC1CC1CC1CC1CC1CC1CCC(=O)OC (stereo not drawn) [BR-111, methyl-3-(2-((2-((2-((2-((2-((2-ethylcyclopropyl)methyl)cyclopropyl)methyl)cyclopropyl)methyl)-cyclopropyl)methyl)cyclopropyl)methyl)cyclopropyl)propanoate]	–	no effect	no effect	sustained increase	45-63%	small increases
